Read-outs that look alike come from different tables or passages of the source.

Data on 1 compound can be found in patent US11160785B2, “Methods and compositions for improving cognitive function” (AgeneBio, Inc., priority 2013, dated 2021).

The subject of one data set is aged-impaired rats (AI). It counts as in vivo, rat. Here is the method:
FIG. 1 depicts the effects of administering levetiracetam on the spatial memory retention of ten aged-impaired rats (AI) in an eight-arm Radial Arm Maze (RAM) test. Six treatment conditions are employed: vehicle control, levetiracetam (1.25 mg/kg/day), levetiracetam (2.5 mg/kg/day), levetiracetam (5 mg/kg/day), levetiracetam (10 mg/kg/day) and levetiracetam (20 mg/kg/day). In the RAM task used, there is a one-hour delay between presentation of a subset of arms (5 arms available and 3 arms blocked) and completion of the eight-arm win-shift task (eight arms available). Rats are pre-treated 30-40 minutes before daily trials with a one-time drug/control treatment. The number of errors made by the rats during the retention phase is used as a measure of spatial memory retention. Errors are defined as instances when rats enter an arm from which food has already been retrieved in the pre-delay component of the trial or when rats re-visit an arm in the post-delay session that had already been visited. Paired t-tests are used to compare the number of errors between different doses of levetiracetam and vehicle control. […]
A Radial Arm Maze (RAM) behavioral task is one example of a cognitive test, specifically testing spacial memory (Chappell et al. Neuropharmacology 37: 481-487, 1998). The RAM apparatus consists of, e.g., eight equidistantly spaced arms. A maze arm projects from each facet of a center platform. A food well is located at the distal end of each arm. Food is used as a reward. Blocks can be positioned to prevent entry to any arm. Numerous extra maze cues surrounding the apparatus may also be provided. After habituation and training phases, spatial memory of the subjects may be tested in the RAM under control or test compound-treated conditions. As a part of the test, subjects are pretreated before trials with a vehicle control or one of a range of dosages of the test compound. At the beginning of each trial, a subset of the arms of the eight-arm maze is blocked. Subjects are allowed to obtain food on the unblocked arms to which access is permitted during this initial “information phase” of the trial. Subjects are then removed from the maze for a delay period, e.g., a 60 second delay, a 15 minute delay, a one-hour delay, a two-hour delay, a six hour delay, a 24 hour delay, or longer) between the information phase and the subsequent “retention test,” during which the barriers on the maze are removed, thus allowing access to all eight arms. […] The identity and configuration of the blocked arms vary across trials. The number of “errors” the subjects make during the retention test phase is tracked. An error occurs in the trial if the subjects entered an arm from which food had already been retrieved in the pre-delay component of the trial, or if it re-visits an arm in the post-delay session that had already been visited. A fewer number of errors would indicate better spatial memory. The number of errors made by the test subject, under various test compound treatment regimes, can then be compared for efficacy of the test compound in treating cognitive impairment associated with CNS disorders.

For data set [1] the following is noted: cited from earlier work.
The subject of data set [2] is DG/CA3 regions of aMCI subjects. In words: fMRI activity in DG/CA3 during lure stimuli correctly identified as similar. It counts as in vivo, human.
In a further data set the test system is somatostatin in DG hilus. In words: Somatostatin (SOM) immunohistochemistry, hilar interneuron counts in aged-impaired rats. Conditions: 10 mg/kg/day, four-week treatment, AI-LEV vs AI-VEH p<0.01, AI-LEV vs Y p=0.679. It counts as in vivo, rat. The text has this:
Tissue was labeled with anti-SOM antiserum (Santa Cruz Biotechnology; cat. no. SC7819-P) using an established immunoperoxidase protocol and tissue sections were processed concurrently to minimize inter-replication variability (Haberman et al., 2009). The anti-SOM antiserum can detect somatostatin. Briefly, sections were washed in 0.1M phosphate-buffered saline (PBS) to remove cryoprotectant, and endogenous peroxidases were quenched in 0.3% H202 in PBS. After additional PBS washes, sections were blocked in 5% normal horse serum in PBS with 0.3% Triton. Sections were then incubated with primary antibody at a dilution of 1:1600 in PBS containing 0.15% Triton and 3% normal serum for 72 hours at 4° C. with agitation. […] The secondary antibody was detected with avidin-biotin complex (ABC Elite; Vector Laboratories Inc., Burlingame, Calif.) and the avidin-biotin complex was visualized with nickel-enhanced diaminobenzadine (Vector Laboratories Inc., Burlingame, Calif.). […]
Interneuron quantification was performed using a Zeiss Axioplan 2 microscope equipped with a motorized stage. […] Neuron counts were analyzed as the total number of hilar interneurons per hippocampal section for each rat.

The test system of data set [3] is reelin in Entorhinal Cortex (EC2). In words: Reelin mRNA in situ hybridization in entorhinal cortex of aged-impaired rats. It counts as in vivo, rat. The note with it: 10 mg/kg/day for 28 days, compared to AI-VEH, p=0.033. The method, then:
In situ hybridization was carried out as described by Haberman et al., (2008). Free-floating tissue sections were washed in 0.75% glycine in 0.1M phosphate buffer two times, followed by a single wash in phosphate buffer. After that, sections were reacted in Proteinase K buffer containing 1.0 μg/ml proteinase K for 30 minutes at 37° C. Sections were then treated with acetic anhydride solution (11.3% triethanolamine, 0.25% acetic anhydride, 0.04 M acetic acid) for 10 minutes at room temperature. This was followed by two 15-minute washes in 2× sodium chloride/citrate buffer (SSC buffer; 20× concentration, 3M NaCl, 0.3M sodium citrate). Next, sections were transferred to hybridization buffer containing 20% formamide, 0.4×Denhardt's solution, 4% dextran sulfate, and 1.6×SSC) supplemented with 0.25 mg/ml tRNA, 0.33 mg/ml sheared salmon sperm DNA, 100 mM DTT, and 1×10^7 cpm/ml 35S-UTP-labeled probe for overnight reaction at 60° C. The following day, sections were washed at 60° C. in 4×SSC/0.01M DTT and 2×SSC/50% formamide. They were then incubated with RNase (20 μg/ml) at 37° C. for 30 min. […] Slides were dried overnight, exposed to a phosphoimager screen, and quantified by using ImageQuant (GE Healthcare). Digital images were acquired of entorhinal cortical sections from the same levels for all animals and the subregion of interest was outlined and quantified. […]

`CC[C@@H](C(N)=O)N1CCCC1=O` [levetiracetam, (2S)-2-(2-oxopyrrolidin-1-yl) butanamide]: the “memory performance relative to vehicle control treatment” value is reported as “significantly improves memory performance” in the data set on aged-impaired rats (AI) and “significantly improves memory performance” with aged-impaired rats (AI) (levetiracetam 10 mg/kg/day i.p., one-hour delay, paired t-test t(9)=2.37, p=0.042). Also, the “human equivalent dose (HED) of the effective rat dose” value in the data set with aged-impaired rats (AI) (HED for a 70 kg human) was 28-56 mg twice a day; with aged-impaired rats (AI) (body surface area conversion of 5-10 mg/kg in rats) it was 0.8 to 1.6 mg/kg/day. The “average no. of errors±standard error of the mean (SEM)” value in the data set with aged-impaired rats (AI) (levetiracetam 5 mg/kg/day i.p. 30-40 min before trial, one-hour delay, n=10, vehicle 2.00±0.42) is 0.75±0.32. In addition, the “performance of AI rats in the radial maze task” value with aged-impaired rats (AI) (levetiracetam 20 mg/kg, FIG. 1) is reported as “fails to improve the performance of AI rats”. The “memory performance in AI rats” value with aged-impaired rats (AI) (rat, in vivo) is “does not significantly improve the memory performance”. Also, the “plasma half-life expected in elderly” value in data set [1] (elderly, decreased renal function) is 9 to 10 h. In data set [1] (in vivo, po), the absorption result was “rapidly and almost completely absorbed”. The “time of peak plasma concentrations” value in data set [1] (in vivo, po) is listed as “about 1 hour”. The plasma half-life result in data set [1] (in vivo) was “approximately 7±1 hour”. The “time to steady state” value in data set [1] (in vivo) is recorded as 2 days. Besides, the “effect of food on bioavailability” value in data set [1] (oral) is recorded as “not affected by food”. For the same compound, the “DG/CA3 hyperactivity during successful memory judgments” value was “does not significantly reduce the DG/CA3 hyperactivity” in data set [2] (levetiracetam 62.5 mg BID for two weeks, cohort N=20) and “does not significantly reduce the DG/CA3 hyperactivity” in data set [2] (levetiracetam 250 mg BID for two weeks, cohort N=17). For the same compound, the “DG/CA3 activity during successful memory judgments” value in data set [2] (levetiracetam 125 mg twice a day for two weeks vs placebo, same aMCI subjects, p=0.037) was “reduces DG/CA3 hyper-activity”. Besides, the “levels of somatostatin in DG hilus (number of SOM-immunoreactive hilar neurons)” value in the data set on somatostatin in DG hilus is given as “restores the levels of somatostatin”. In addition, the “reelin mRNA expression in the lateral entorhinal cortex (EC2)” value in data set [3] is “significantly increased the expression of reelin”.
